Data as given in patent US9771341B2, “Piperazine carbamates and methods of making and using same” (Abide Therapeutics, Inc., priority 2015, dated 2017).

Columns and labels:
[1] = molecular target: T1, MAGL (Mus musculus, UniProt O35678); assay: In vitro competitive activity-based protein profiling (mouse), MAGL; type: biochemical; settings: for inhibition at 1 µM: mouse proteome, in vitro, read-out: % Inhibition at 1 μM MAGL; for IC50: mouse brain membrane fraction or cell lysates, 30 min preincubation at 37° C, FP-Rh probe
T1 construct: Proteomes (mouse brain membrane fraction or cell lysates); from tissue; host or cells: mouse brain membrane fraction (or unspecified cell lysates)
T1 sequence (O35678 1-303): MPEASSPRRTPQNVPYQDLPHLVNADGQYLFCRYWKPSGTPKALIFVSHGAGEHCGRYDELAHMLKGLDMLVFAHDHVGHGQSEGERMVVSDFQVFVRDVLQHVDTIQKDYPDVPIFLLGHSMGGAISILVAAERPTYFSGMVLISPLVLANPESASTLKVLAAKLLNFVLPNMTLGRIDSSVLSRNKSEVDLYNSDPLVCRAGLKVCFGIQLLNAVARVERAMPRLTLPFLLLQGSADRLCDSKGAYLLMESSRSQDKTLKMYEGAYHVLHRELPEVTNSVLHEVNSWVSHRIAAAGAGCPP
Protocol: (§1) In Vitro Competitive Activity-Based Protein Profiling (Mouse).
(§2) Proteomes (mouse brain membrane fraction or cell lysates) (50 μL, 1.0 mg/mL total protein concentration) were preincubated with varying concentrations of inhibitors at 37° C. After 30 min, FP-Rh (1.0 μL, 50 μM in DMSO) was added and the mixture was incubated for another 30 min at 37° C. Reactions were quenched with SDS loading buffer (50 μL-4×) and run on SDS-PAGE.

[2] = molecular target: T2, ABHD6 (Mus musculus, UniProt Q8R2Y0); assay: Mouse brain proteomes from inhibitor treated mice, ABHD6; type: in vivo; settings: 5 mg/kg oral gavage, C57Bl/6J mice, brain proteome 4 h after administration
T2 construct: Proteomes (mouse brain membrane fraction or cell lysates); from tissue; host or cells: mouse brain membrane fraction (or unspecified cell lysates)
T2 sequence (Q8R2Y0 1-336): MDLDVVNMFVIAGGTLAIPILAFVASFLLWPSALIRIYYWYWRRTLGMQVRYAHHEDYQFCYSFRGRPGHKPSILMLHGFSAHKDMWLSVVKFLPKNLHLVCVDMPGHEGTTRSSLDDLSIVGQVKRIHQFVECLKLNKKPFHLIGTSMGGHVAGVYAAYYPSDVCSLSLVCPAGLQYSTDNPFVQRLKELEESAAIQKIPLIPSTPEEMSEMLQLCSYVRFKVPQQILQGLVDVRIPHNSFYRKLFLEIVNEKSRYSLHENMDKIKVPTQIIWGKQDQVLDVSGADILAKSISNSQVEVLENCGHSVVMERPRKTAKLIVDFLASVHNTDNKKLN
Protocol: (§3) Preparation of Mouse Brain Proteomes from Inhibitor Treated Mice.
(§4) Inhibitors were administered to wild-type C57Bl/6J by oral gavage in a vehicle of polyethylene glycol.

[3] = molecular target: T3, FAAH (Mus musculus, UniProt O08914); assay: In vitro competitive activity-based protein profiling (mouse), FAAH; type: biochemical; settings: for inhibition at 1 µM: mouse proteome, in vitro; for IC50: mouse brain membrane fraction or cell lysates, 30 min preincubation at 37° C, FP-Rh probe
T3 construct: Proteomes (mouse brain membrane fraction or cell lysates); from tissue; host or cells: mouse brain membrane fraction (or unspecified cell lysates)
T3 sequence (O08914 1-579): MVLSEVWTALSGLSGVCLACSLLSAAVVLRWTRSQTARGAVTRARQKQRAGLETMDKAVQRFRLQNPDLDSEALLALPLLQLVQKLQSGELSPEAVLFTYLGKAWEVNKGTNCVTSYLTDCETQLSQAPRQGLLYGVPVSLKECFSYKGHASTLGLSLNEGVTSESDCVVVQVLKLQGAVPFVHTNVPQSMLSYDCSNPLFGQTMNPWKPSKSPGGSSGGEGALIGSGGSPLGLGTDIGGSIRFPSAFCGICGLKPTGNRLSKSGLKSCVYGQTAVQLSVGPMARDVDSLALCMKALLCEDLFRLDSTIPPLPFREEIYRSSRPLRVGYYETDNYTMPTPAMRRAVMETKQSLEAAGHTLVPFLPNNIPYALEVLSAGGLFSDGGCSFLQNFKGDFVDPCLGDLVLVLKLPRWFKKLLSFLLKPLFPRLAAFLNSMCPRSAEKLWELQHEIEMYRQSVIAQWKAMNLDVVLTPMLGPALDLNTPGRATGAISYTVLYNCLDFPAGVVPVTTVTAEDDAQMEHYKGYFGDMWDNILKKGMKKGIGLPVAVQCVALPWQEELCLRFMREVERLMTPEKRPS
How it was run: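 Mouse brain membrane fraction or cell lysates (1.0 mg/mL protein) preincubated with inhibitors 30 min at 37° C, then FP-Rh probe 30 min at 37° C. SDS-PAGE fluorescence band intensity gave FAAH activity.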

[4] = molecular target: T3, FAAH; assay: Mouse brain proteomes from inhibitor treated mice, FAAH; type: in vivo; settings: 5 mg/kg oral gavage, C57Bl/6J mice, brain proteome 4 h after administration
Protocol: as §3
Inhibitors were administered to wild-type C57Bl/6J by oral gavage in a vehicle of polyethylene glycol. Each animal was sacrificed 4 h following administration and brain proteomes were prepared and analyzed according to previously established methods (See Niphakis, M. J., et al. (2011) ACS Chem. Neurosci. and Long, J. Z., et al. Nat. Chem. Biol. 5:37-44)

[5] = molecular target: T1, MAGL; assay: Mouse brain proteomes from inhibitor treated mice, MAGL; type: in vivo; settings: 5 mg/kg oral gavage, C57Bl/6J mice, brain proteome 4 h after administration
Protocol: as §3, §4

[6] = molecular target: T2, ABHD6; assay: In vitro competitive activity-based protein profiling (mouse), ABHD6; type: biochemical; settings: for inhibition at 1 µM: mouse proteome, in vitro, read-out: % Inhibition at 1 μM ABHD6; for IC50: mouse brain membrane fraction or cell lysates, 30 min preincubation at 37° C, FP-Rh probe
Protocol: as §1, §2

**Q.** What does the source list for `COc1c(CN2CCN(C(=O)OC(C(F)(F)F)C(F)(F)F)CC2)cccc1CN1CCC(F)(F)CC1` [Example 16, 1,1,1,3,3,3-hexafluoropropan-2-yl 4-(3-((4,4-difluoropiperidin-1-yl)methyl)-2-methoxybenzyl)piperazine-1-carboxylate]?
**A.** inhibition at 1 µM [1]: > 75%; IC50 [1]: < 100 nM; inhibition at 5 mg/kg [2]: 25 to 75%; inhibition at 1 µM [3]: < 25%; IC50 [3]: > 1000 nM; inhibition at 5 mg/kg [4]: < 25%; inhibition at 5 mg/kg [5]: > 75%; inhibition at 1 µM [6]: > 75%; IC50 [6]: 100 to 1000 nM

**Q.** How did the inhibition at 1 µM [1] turn out when `O=C(OC(C(F)(F)F)C(F)(F)F)N1CCN(Cc2ccc(Cl)cc2N2CC[C@@H](N3CCCCC3=O)C2)CC1` [Example 43, 1,1,1,3,3,3-hexafluoropropan-2-yl (R)-4-(4-chloro-2-(3-(2-oxopiperidin-1-yl)pyrrolidin-1-yl)benzyl)piperazine-1-carboxylate] was run?
**A.** > 75%

**Q.** And the IC50 [1]?
**A.** < 100 nM

**Q.** And the inhibition at 5 mg/kg [2]?
**A.** < 25%

**Q.** And the inhibition at 1 µM [3]?
**A.** < 25%

**Q.** What about the IC50 [3] of the same compound?
**A.** > 1000 nM

**Q.** What about the inhibition at 5 mg/kg [4] of the same compound?
**A.** < 25%

**Q.** And the inhibition at 5 mg/kg [5]?
**A.** 25 to 75%

**Q.** What about the inhibition at 1 µM [6] of the same compound?
**A.** < 25%

**Q.** And the IC50 [6]?
**A.** > 1000 nM

**Q.** With `O=C(OC(C(F)(F)F)C(F)(F)F)N1CCN(Cc2ccc(C(F)(F)F)c(N3CC4CCC(C3)O4)c2)CC1` [Example 26, 1,1,1,3,3,3-hexafluoropropan-2-yl 4-(3-(8-oxa-3-azabicyclo[3.2.1]octan-3-yl)-4-(trifluoromethyl)benzyl)piperazine-1-carboxylate] as the compound, how does the inhibition at 1 µM [1] read?
**A.** > 75%

**Q.** What about the IC50 [1] of the same compound?
**A.** < 100 nM

**Q.** What about the inhibition at 5 mg/kg [2] of the same compound?
**A.** > 75%

**Q.** What about the inhibition at 1 µM [3] of the same compound?
**A.** < 25%

**Q.** What about the IC50 [3] of the same compound?
**A.** > 1000 nM

**Q.** And the inhibition at 5 mg/kg [4]?
**A.** < 25%

**Q.** What about the inhibition at 5 mg/kg [5] of the same compound?
**A.** > 75%

**Q.** And the inhibition at 1 µM [6]?
**A.** > 75%

**Q.** And the IC50 [6]?
**A.** 100 to 1000 nM

**Q.** Which inhibition at 1 µM [1] does the source give for `CS(=O)(=O)N[C@@H]1CCN(c2cc(Cl)ccc2CN2CCN(C(=O)OC(C(F)(F)F)C(F)(F)F)CC2)C1` [Example 39, 1,1,1,3,3,3-hexafluoropropan-2-yl (R)-4-(4-chloro-2-(3-(methylsulfonamido)pyrrolidin-1-yl)benzyl)piperazine-1-carboxylate] here?
**A.** > 75%

**Q.** What about the IC50 [1] of the same compound?
**A.** < 100 nM

**Q.** What about the inhibition at 5 mg/kg [2] of the same compound?
**A.** 25 to 75%

**Q.** And the inhibition at 1 µM [3]?
**A.** < 25%

**Q.** What about the IC50 [3] of the same compound?
**A.** > 1000 nM

**Q.** And the inhibition at 5 mg/kg [4]?
**A.** < 25%

**Q.** What about the inhibition at 5 mg/kg [5] of the same compound?
**A.** > 75%

**Q.** What about the inhibition at 1 µM [6] of the same compound?
**A.** 25 to 75%

**Q.** What about the IC50 [6] of the same compound?
**A.** > 1000 nM

**Q.** With `O=C(OC(C(F)(F)F)C(F)(F)F)N1CCN(Cc2ccc(Cl)cc2N2CC[C@@H](N3CCCC3=O)C2)CC1` [Example 41, 1,1,1,3,3,3-hexafluoropropan-2-yl (R)-4-(4-chloro-2-(2-oxo-[1,3′-bipyrrolidin]-1′-yl)benzyl)piperazine-1-carboxylate] as the compound, how does the inhibition at 1 µM [1] read?
**A.** > 75%

**Q.** And the IC50 [1]?
**A.** < 100 nM

**Q.** And the inhibition at 5 mg/kg [2]?
**A.** < 25%

**Q.** What about the inhibition at 1 µM [3] of the same compound?
**A.** < 25%

**Q.** What about the IC50 [3] of the same compound?
**A.** > 1000 nM

**Q.** What about the inhibition at 5 mg/kg [4] of the same compound?
**A.** < 25%

**Q.** What about the inhibition at 5 mg/kg [5] of the same compound?
**A.** > 75%

**Q.** What about the inhibition at 1 µM [6] of the same compound?
**A.** 25 to 75%

**Q.** What about the IC50 [6] of the same compound?
**A.** > 1000 nM

**Q.** With `NC(=O)C1CCN(c2cc(Cl)ccc2CN2CCN(C(=O)OC(C(F)(F)F)C(F)(F)F)CC2)CC1` [Example 33, 1,1,1,3,3,3-hexafluoropropan-2-yl 4-(2-(4-carbamoylpiperidin-1-yl)-4-chlorobenzyl)piperazine-1-carboxylate] as the compound, how does the inhibition at 1 µM [1] read?
**A.** > 75%

**Q.** What about the IC50 [1] of the same compound?
**A.** < 100 nM

**Q.** What about the inhibition at 5 mg/kg [2] of the same compound?
**A.** > 75%

**Q.** And the inhibition at 1 µM [3]?
**A.** < 25%

**Q.** And the IC50 [3]?
**A.** > 1000 nM

**Q.** And the inhibition at 5 mg/kg [4]?
**A.** < 25%

**Q.** What about the inhibition at 5 mg/kg [5] of the same compound?
**A.** > 75%

**Q.** What about the inhibition at 1 µM [6] of the same compound?
**A.** > 75%

**Q.** What about the IC50 [6] of the same compound?
**A.** 100 to 1000 nM
